Assay results from patent US5420276A, “Analogs of oxetanyl purines and pyrimidines” (Abbott Laboratories, priority 1993, dated 1995).
≈ marks a conversion by molar mass, not a printed value.

What was measured:
[1] = system: Herpes Simplex Virus Type 1; experiment: Neutral red dye uptake assay for antiviral activity, HSV-1 in Vero cells; type: cell-based; settings: Human alphaherpesvirus 1, HSV-1, Vero, concentration at which 50% CPE would be observed, read-out: MIC50
Description: (§1) Vero cell monolayers were harvested by trypsinization. The number of viable cells per ml. was determined by staining an aliquot with trypan blue and counting in a hemocytometer. Cell densities were adjusted in growth medium to contain 4×10^5 cells/mi. 96-well sterile tissue culture plates were seeded with 100 μl/well of the adjusted cell suspensions, i.e., 4×10^4 cells/well. Seeded plates were incubated overnight at 37° C. with CO2.
(§2) After overnight incubation, monolayers were approximately confluent. The growth medium was removed and the monolayers in each cell were infected with 100 μl of virus diluted in maintenance medium to produce approximately 90% cytopathogenic effect (CPE) after 2 to 3 days incubation. The virus was allowed to adsorb for 1 hour at 37° C. with 4 to 6% CO2. Controls for cell growth were overlayed with virus-free maintenance medium. The maintenance medium containing residual virus was removed.
(§3) The test compounds were dissolved and/or diluted in maintenance medium to the concentration desired for testing and were added to the wells of the plate. Aliquots (100 μl ) of each concentration were added to wells in replicate (duplicate or triplicate). Controls for virus activity were overlayed with drug-free maintenance medium. Replicate wells containing only maintenance medium served as controls for background absorbance levels.
After incubation, the medium was removed from all the wells. 100 μl of neutral red solution was added to each well and the plate was incubated at 37° C. without CO2 for 2 hours. After the 2 hour incubation, the excess neutral red solution was removed. […]
The neutral red stain taken up by the viable cells was extracted by adding 100 μl/well of acidified methanol, pH 1.0. […] The amount of neutral red stain extracted into the methanol was quantified by determining the absorbance at a wavelength of 540 nm.
The percent CPE in virus controls was determined by the following formula: [formula]
The percent CPE in cells infected with virus and treated with the test compound was determined by the following formula: [formula] […]

[2] = in vitro; type: cell-based, African green monkey; settings: monkey, vero cells
Description: as §1, §2, §3
After incubation, the medium was removed from all the wells. 100 μl of neutral red solution was added to each well and the plate was incubated at 37° C. without CO2 for 2 hours. After the 2 hour incubation, the excess neutral red solution was removed. The plates were washed with 100 μl/well of PBS, pH 7.2 and then the PBS was removed.
The neutral red stain taken up by the viable cells was extracted by adding 100 μl/well of acidified methanol, pH 1.0. (The acidified methanol fixed the cells to the well). The plate was allowed to stand at room temperature for at least 15 minutes to allow for maximum extraction. The amount of neutral red stain extracted into the methanol was quantified by determining the absorbance at a wavelength of 540 nm. […]

[3] = system: HSV-1 (E-377); experiment: CPE inhibition assay (MTT), HSV-1 (E-377) in Vero cells; type: cell-based, herpes simplex virus type 1; settings: Human alphaherpesvirus 1, inhibited CPE by 50%
Description: Vero cells were pregrown as monolayers in wells of COSTAR 96-well tissue culture plates using suitable cell culture media. Stock viruses were pretitered according to the method of Reed and Muench (Amer. J. Hyg. 27 493 (1938)) and diluted in cell culture medium to yield 32 CCID50 (cell culture infectious dose, 50%) units per 0.1 mL. Antiviral assays were designed to test six concentrations of each compound, from cytotoxic to noncytotoxic levels, in triplicate against each of the challenge viruses in microtiter plate wells containing cell monolayers. To each of the replicate cell cultures were added 0.1 mL of the test-compound solution and 0.1 mL of virus suspension. Two compounds were evaluated per plate. The following controls were included:
(1) Cell controls containing cells+medium;
(2) Untreated, virus-infected cell controls;
(3) Test-compound cytotoxicity controls containing uninfected, test-compound treated cells;
(4) Test-compound color controls-test-compound+medium (no cells); and
(5) Reagent (experiment medium) controls-medium only (no cells).
The covered plates were incubated at 37° C. in a humidified atmosphere containing 2% CO2. When cytopathogenic effect (CPE) in untreated virus control wells reached 100%, 20 μL of 3-(4,5-dimethyl-thiazol-2-yl)-2,5-diphenyl tetrazolium bromide (MTT) (dissolved in PBS at 5 mg/mL) was pipetted into each of the plate wells. The plates were incubated at 37° C. for six hours; then 40 μL of 30% SDS (in 0.02N HCl) was added to each well. After overnight incubation at 37° C., the blue color or the MTT formazan was measured spectrophotometrically at 570 nm. The optical density (OD) value of each culture is a function of the amount of formazan produced which is proportional to the number of viable cells. A computer program was utilized to calculate the percent (CPE) reciprocal of % CPE reduction) of the virus-infected wells and % cell viability of the uninfected test-compound control wells.
The IC50 value is the minimum test-compound concentration (μg/mL) that inhibited CPE by 50% calculated by using a regression analysis program for semilog curve fitting. The TC25 value is the minimum test-compound concentration (μg/mL) that reduced cell viability by 25%.

IC50 [3]: 0.072 µg/mL (≈ 0.216 µM)
Structure (SMILES): O=c1[nH]c(=O)n([C@@H]2O[C@H](CO)[C@H]2CO)cc1C=CBr [Example 44, 1-([2'R, 3'R, 4'S]-3',4'-Bis(hydroxymethyl)-2'-oxetanyl)-5-(2-bromo-1-vinyl)uracil]
EC50 [1]: 0.09 µg/mL (≈ 0.27 µM) | CC50 [2]: > 1000 µg/mL
